Source: US20090074885A1, “Reversible Hydrophobic Modification of Drugs for Improved Delivery to Cells” (Roche Madison Inc., priority 2003, published 2009)
Where two headings read alike, the source gives them in different places.

Columns and labels:
[1] = test system: B16 murine melanoma cells; test: CellTiter-Glo luminescent cell viability assay; assay type: cell-based; conditions: 10 min drug solution exposure, 3 h in media, 24 h culture; up to 112 μl delivery solution per well
Protocol: Cells were seeded at 1×10^4 cells/well in 100 μl of media into 96-well plates on day 0 and cultured for 24 h prior to addition of drug. […] Following 10 min of drug solution exposure, 100 μl of fresh media was added to each well and incubated for 3 h. Drug-containing media was replaced with 100 μl of fresh media and cultured for and additional 24 h.

[2] = Analysis of prodrug lability (rate of hydrolysis) of PI derivatives by fluorescent spectroscopy; assay type: physicochemical; conditions: extrapolated to pure buffer (100 mol % H2O)
Protocol: (§1) Analysis of prodrug lability. The prodrugs were tested for their rate of hydrolysis at pH 6.0, 7.2 and 8.5 using fluorescent spectroscopy. Lability studies for C12CON-PI and RRH-PI (rapidly reversible hydrophobic-PI) derivatives were conducted on a Cary Eclipse Fluorescence Spectrophotometer (Varian Inc.).
To solutions of PI and RRH-prodrugs of PI (7.48 μM in DMSO) were added various amounts of buffer (25 μL, 50 μL, and 100 μL of 20 mM Hepes buffer) at different pH. Upon cleavage of the hydrophobic modification and regeneration of PI, the fluorescence of the solution increased (λex=493 nm, λem=647 nm, excitation and emission slit width=5 nm, and emission PMT=600V) and was assayed as a function of time (20 min).
(§2) The resulting curves were normalized for intensity and fit to an exponential equation (Origin) to determine kdetermined for each solution. The kdetermined for each compound at appropriate pH were plotted against the mol % of H2O, and the best fit line was solved for kbuffer for 100 mol % H2O. These derived kbuffer values were used to determine the half-life of the prodrug in pure buffer according to the equation t1/2=1n2/k.

[3] = test system: SK-OV-3 (human ovarian carcinoma) cells; test: In vitro cellular uptake by fluorescence microscopy, SK-OV-3; assay type: cell-based; conditions: fluorescein channel
Protocol: In Vitro cellular uptake of PI, RRH-PI compounds, and IV evaluated by fluorescence measurements. […] Adherent cells were plated at 2.5×10^5 cells/well on 6-well plates 24 h prior to testing. The growth media was removed from individual wells and the drug/prodrug was immediately added to the well with the mixing chamber. […] After 30 sec the drug solution was removed (aspirated) and 2 ml complete media was added to the cells. Experiments conducted with prodrug that was hydrolyzed prior to application to the cells followed a similar protocol, however the combined solution obtained after passing through the mixing chamber was collected and allowed to sit at ambient temperature for 5 min prior to application on the cells. Experiments conducted with Calcein AM (Invitrogen, 100 μl of 20 μM solution in complete media) followed a similar protocol for drug treatment (4 min treatment). Experiments conducted with SYTOX Green (Invitrogen) followed a similar protocol for drug treatment. […] Each condition was repeated in 2 or 3 wells, and the cells were immediately examined by microscopy. Fluorescent microscopy studies were conducted with a three laser LSM 510 confocal microscope, an Axiovert S100 fluorescent microscope, or an Axioplan2 fluorescent microscope (all Zeiss) equipped with filter sets for the rhodamine fluorescence channel (λex=BP 450/12, λem=LP 590 nm filter set) and the fluorescein fluorescent channel (λex=BP 546/90, λem=LP 515 nm filter set). Imaging was performed with an AxioCam digital camera (Zeiss), with AxioVision imaging software (V 4.5, Zeiss). For all images, identical camera settings and exposure times were used on comparative sample and control images. Images were processed with Photoshop (Adobe) for level and brightness using identical settings between sample and control images. For experiments conducted with IV, the cells were plated on 6-well plates with cover slips. […] Imaging was conducted on an Axioplan2 fluorescent microscope (Zeiss) and the same fields were imaged with phase contrast illumination, in the rhodamine fluorescence channel (λex=BP 450/12, λem=LP 590 nm filter set), and in the fluorescein fluorescent channel (λex=BP 546/90, λem=LP 515 nm filter set). IV was also mixed with PI and then delivered to SK-OV-3 cells, and the cells were imaged as before. In one protocol, equal amounts of IV (15.0 mM in DMSO) and PI (15.0 mM in DMSO) were combined and the resulting solution was added to cells via the mixing chamber. In a second method, PI was taken up in the ITG solution (0.748 mM) and mixed with IV (7.48 mM in DMSO) in the mixing chamber. […] The cells were imaged as before following 30 sec-4 min exposure to the drug solution.

SK-OV-3 cells = test: Uptake of PI mixed with hydrophobic derivative (membrane damage test), SK-OV-3; assay type: cell-based, human; conditions: compared to cells treated with PI alone
Protocol: (§3) For experiments conducted with IV, the cells were plated on 6-well plates with cover slips. Following treatment as above, the cover slip was immediately removed and inverted over 1 drop of media for imaging, or the cells were incubated for 1 h prior to removal of the cover slip and imaging. Imaging was conducted on an Axioplan2 fluorescent microscope (Zeiss) and the same fields were imaged with phase contrast illumination, in the rhodamine fluorescence channel (λex=BP 450/12, λem=LP 590 nm filter set), and in the fluorescein fluorescent channel (λex=BP 546/90, λem=LP 515 nm filter set). IV was also mixed with PI and then delivered to SK-OV-3 cells, and the cells were imaged as before. In one protocol, equal amounts of IV (15.0 mM in DMSO) and PI (15.0 mM in DMSO) were combined and the resulting solution was added to cells via the mixing chamber. In a second method, PI was taken up in the ITG solution (0.748 mM) and mixed with IV (7.48 mM in DMSO) in the mixing chamber. Similarly, V (15 mM and 30 mM in DMSO) was mixed with PI and delivered to Hepa 1-6 and SK-OV-3 cells using the second method. The cells were imaged as before following 30 sec-4 min exposure to the drug solution.

[4] = test system: Hepa 1-6 (mouse hepatoma); test: WST cytotoxicity assay, Hepa 1-6; assay type: cell-based
Protocol: (§4) Antiproliferative/Cytotoxic in vitro studies on PI, RRH-PI prodrugs, melphalan, and C12PMMA-melphalan. In vitro cytotoxicity testing was conducted on Hepa 1-6 (mouse hepatoma), SK-OV-3 (human ovarian carcinoma), and MC38 (mouse colon carcinoma) cells using a tetrazolium based assay (WST, Dojindo Molecular Technologies). For the WST assay, Hepa 1-6 (2.0×10^5 cells well), SK-OV-3 (7.5×10^5 cells well), and MC38 (8.5×10^5 cells well) were seeded in 1000 μL media into 12-well plates 24 h prior to testing (starting confluency ˜50%). Following removal of media, drug/prodrug solution was added drop-wise to quadruplicate wells, using the mixing chamber. Effective drug concentrations were calculated from the amount of drug added in the total volume of OS and aqueous solution. Following 4 min of drug solution exposure, the solution was removed, and 1000 μl fresh complete media was added to each well. After the cells were incubated for 24-48 h, WST-1 (20 μl of a 5 mM solution in PBS) and N-methylphenazonium methyl sulfate (PMS, 20 μl 0.2 mM solution in PBS) were added and the cells were incubated for 1-4 h. For testing with MC38 cells, the amounts of WST-1 and PMS were doubled. Following incubation, 100 μl of sample was transferred to quadruplicate wells on a 96-well plate, and the absorbance (438 nm) values were measured on a SPECTRAmax Plus^384 microplate spectrophotometer (Molecular Devices Corporation). Data represents the mean A438 values of 16 wells with standard deviation, corrected for media contribution, and normalized against cells in media with no drug/prodrug treatment (reported as % cell viability±standard deviation).
(§5) The concentration of drug (μM) that is required for 50% inhibition in vitro is reported as the IC50. The reported values were calculated from the best fit line (Excel) for a plot of effective drug concentration against % cell viability, and include the r^2 value. The reported IC50 values for multiple RRH-PI plots are reported as IC50 (μM)±standard deviation.

[5] = test system: SK-OV-3 (human ovarian carcinoma); test: WST cytotoxicity assay, SK-OV-3; assay type: cell-based
Protocol: as §4, §5

[6] = Dynamic light scattering particle size; assay type: physicochemical; conditions: following mixing with ITG through mixing chamber
Protocol: (§6) Light Scattering analysis of prodrugs. Particle size was determined by dynamic light scattering on a Zeta Plus (Zeta Potential Analyzer, Brookhaven Instrument Corporation, λ 533 nm, 90°), and results are reported as the size of the most abundant particle (range of particle sizes, counts sec^−1). Fluorescent compounds were also analyzed for particles qualitatively, by measuring for light scattering on a Cary Eclipse Fluorescence Spectrophotometer (Varian Inc.), with λex=λem (300-800 nm, 90° detection). The presence of particles in solution results in an increase in signal detection at 90°. PI and RRH-PI prodrugs were 7.48 mM in DMSO. Melphalan and V were 50 mM in DMSO. The drug/prodrug solutions were mixed and diluted with ITG through the mixing chamber (40 μl OS and 400 μl ITG), and analyzed immediately.

[7] = Qualitative 90° light scattering for particles; assay type: physicochemical; conditions: relative to ITG or PI in ITG
Protocol: as §6

[8] = test system: MC38 (mouse colon carcinoma); test: WST cytotoxicity assay, MC38; assay type: cell-based; conditions: MC38, 4 min drug exposure, WST 48 h after
Protocol: as §4, with “For testing with MC38 cells, the amounts of WST-1 and PMS were doubled.” left out, “Data represents the mean A438 values of 16 wells with standard deviation, corrected for media contribution, and normalized against cells in media with no drug/prodrug treatment (reported as % cell viability±standard deviation).” left out

[9] = Hydrolysis of V monitored by reaction of liberated melphalan with fluorescamine; assay type: physicochemical; conditions: pH 6.0; for Half-life: extrapolated to pure buffer (100 mol % H2O)
Protocol: as §1
Alternatively, to solutions of fluorescamine (857 μM in DMSO) were added various amounts of buffer (20 μL, 30 μL, 40 μL, 50 μL, and 70 μL of 100 mM MES buffer, pH 6.0) followed by melphalan or V (249 μM final concentration in DMSO). The fluorescence of the solution (λex=380 nm, λem=464 nm, excitation and emission slit width=5 nm, and emission PMT=600V) was assayed as a function of time (40 min). At each buffer concentration the reaction of fluorescamine and melphalan was more rapid than hydrolytic breakdown of V.
as §2

Hepa 1-6 = test: Uptake of PI mixed with hydrophobic derivative (membrane damage test), Hepa 1-6; assay type: cell-based, mouse; conditions: compared to PI alone
Protocol: as §3

[10] = Trypan blue assay for membrane disruption; assay type: cell-based
[11] = Hepa 1-6, 4 min drug exposure, WST 48 h after, read-out: Mean IC50
[12] = SK-OV-3, 4 min drug exposure, WST 48 h after, read-out: Mean IC50

SMILES: CCCCCCCCCCCCCCCCCC[Si](C)(C)N.CCCCCCCCCCCCCCCCCC[Si](C)(C)N.[Cl][Pt][Cl] [BDMODS-CP, Cl2Pt(NH2Si(CH3)2C18H37)2]
- antiproliferative/cytotoxic effect (RLU) [1]: complete cytotoxic effect

SMILES: CCCCCCCCCCCC(=O)Nc1ccc2c(c1)c(-c1ccccc1)[n+](CCC[N+](C)(CC)CC)c1cc(NC(=O)CCCCCCCCCCC)ccc21.[I-].[I-] [IV, 3,8-bis-undecylcarbanylamino 5-(3,3-diethyl-3-methylammoniumpropyl) 6-phenyl phenanthridinium diiodide]
- Half-life ([2]; pH 7.2): non-labile
- Half-life ([2]; pH 8.5): non-labile
- fluorescent signal localisation ([3]; after one hour incubation): more defined punctate signal
- fluorescent signal localisation ([3]; immediately following application): diffuse signal was observed along the cell membrane
- nuclear PI staining when delivered together with PI (SK-OV-3 cells): no increased levels of nuclear PI staining detected
- IC50 ([4]; Hepa 1-6, 4 min drug exposure, WST 24 h after, read-out: Mean IC50): 585 µM
- IC50 [4, 11]: 429 µM
- IC50 ([5]; SK-OV-3, 4 min drug exposure, WST 24 h after, read-out: Mean IC50): 455 µM
- IC50 [5, 12]: 342 µM
- range of particle sizes [6]: 28-42 nm
- size of the most abundant particle [6]: 36 nm
- increase in 90° light scattering signal intensity [7]: 15 fold

SMILES: N[C@@H](Cc1ccc(N(CCCl)CCCl)cc1)C(=O)O [Melphalan, reference compound]
- viability at 1458 µM ([4]; Mus musculus, Hepa1-6, 48 h, read-out: cell viability at highest concentration tested, Hepa 1-6, 48 h, 1458 μM): 81%
- IC50 ([4]; Mus musculus, Hepa1-6, read-out: Mean IC50): > 1460 µM
- viability at 1458 µM ([5]; Homo sapiens, SK-OV-3, 48 h, read-out: cell viability at highest concentration tested, SK-OV-3, 48 h, 1458 μM): 70 ± 11%
- IC50 ([5]; Homo sapiens, SK-OV-3, read-out: Mean IC50): > 1460 µM
- IC50 ([8]; Mus musculus, MC-38): 1180 µM

SMILES: CCCCCCCCCCCCNC(=O)CCC(=CCC(=O)O)C(=O)NC(Cc1ccc(N(CCCl)CCCl)cc1)C(=O)O (centres unmarked) [V, 3,9-diaza, 2-[4-{bis(2-chloroethyl)amino}phenylmethyl], 5-(2-carboxylethylidine), 4,8-dioxo uncosanoic acid]
- k [9]: (1.62 min^−1)
- Half-life [9]: 28 s
- Half-life ([9]; listed as C12PMMA-Melphalan (V)): 25.7 s
- nuclear PI staining when delivered together with PI (SK-OV-3 cells): no increased levels of nuclear PI staining were observed
- nuclear PI staining when delivered together with PI (Hepa 1-6): no increased levels of nuclear PI staining were observed
- generalized membrane disruption [10]: neither V or methyl aniline silylated with chloro(dimethyl)octadecylsilane caused generalized membrane disruption
- IC50 [4, 11]: 330 µM
- IC50 [5, 12]: 384 µM
- IC50 [8]: 304 µM
- range of particle sizes [6]: 36-66 nm
- size of the most abundant particle [6]: 36 nm
